From patent US20220370463A1, “STABILIZED C-FMS INTRACELLULAR FRAGMENTS (FICD) PROMOTE OSTEOCLAST DIFFERENTIATION AND ARTHRITIC BONE EROSION” (New York Society for the Relief of the Ruptured and …, priority 2019, published 2022)
Entries after “also recorded” stand apart in the source; their conditions may differ.

How the values were obtained:
[1] = tested on: FICD (mem, H-FICD, L-FICD); assay: FICD in membrane, cytoplasmic and nuclear fractions of human OCPs, immunoblot; assay type: cell-based; details: for generation of H-FICD and L-FICD and cellular distribution of FICDs: human CD14+ cells stimulated with ligand (20 ng/ml)
Method: (a) Human CD14+ cells were cultured with M-CSF (20 ng/ml) for 8 hours to induce early signals and then DAPT (10uM) was added for 2 days. Protein expression of c-FMS, Na+K+ pump, Lamin B1 and α-tubulin, as determined by immunoblot. ME; membrane extracts, CE; cytoplasmic extracts, and NE; nuclear extracts. (b) Immunohistochemistry of DAPI and c-FMS [middle]. […] Scale: 200×. (c) Cells were starved for three hours and then stimulated with M-CSF for the indicated times. (d and e) Cells were treated with Imatinib (0.3 μM, d) or c-FMS blocking antibody (5 μg) prior to the addition of M-CSF. Protein expression of FICD was measured by immunoblot. Lamin B1 and α-tubulin were used as controls for nuclear and cytoplasmic fractions, respectively. (f) Human CD14+ cells were cultured with M-CSF (20 ng/ml) for 8 hours to induce early signals and then MDL 28170(5 uM). Immunoblot with anti c-FMS and Lamin B1 antibodies. (g and h) Calpain 1, 5, and 6 were knocked down with siRNAs. Cells were cultured with M-CSF for 12 hours. (g) Efficiency of knockdown of Calpain 1, 5, and 6. (h) Immunoblot of c-FMS and Lamin B1. All data are shown as mean±SEM. *,p<0.05 by two-tailed, unpaired t-test (g). Representative results from at least three independent experiments.
(A and B) Human CD14+ cells were cultured with M-CSF (20 ng/ml) for 8 hours to induce early signals and then (A) MDL 28170(0, 1, 2, 5 uM) or (B) PD150606 (0, 2, 5 uM) was added for 2 days. Immunoblot with anti c-FMS and α-tubulin antibodies in whole lysates(n=3). (C) Immunoblot of nuclear lysates with c-FMS and Lamin B1 antibodies. Cells were cultured with M-CSF for 12 hours, and then M-CSF was removed. Cells were subsequently treated with or without CaCl2 (10 mM) for an additional 24 hours. (D) Osteoclastogenesis assay. Human CD14+ cells were cultured with M-CSF, RANKL and MDL28170 for 4 days. […] Black scale bar is 100 μm. […] First two calpain cleavage sites in cytoplasmic domains of c-FMS were used for FICD constructs. (F) A schematic diagram of a FICD construct. Representative results from at least three independent experiments.
Whole cell extracts were prepared by lysis in buffer containing 1× Lamin sample buffer (Bio-rad) and 2-Mercaptoethanol (Sigma) or RIPA buffer (Sigma). The cell membrane-permeable protease inhibitor, Pefablock (1 mM), was added immediately prior to harvest cells. The membrane proteins were extracted with Mem-PER™ Plus Membrane Protein Extraction Kit (Thermorfisher scientific; 89842) according to manufacturer's instructions. To extracts of nucleus protein, cells were incubated in buffer A (10 mM Hepes, pH 7.9, 1.5 mM MgCl2, 10 mM KCl, 0.1 mM EDTA, 0.1 mM EGTA, proteinase inhibitor cocktail (Complete, Roche) and 1 mM DTT) for 15 min at 4° C. NP-40 was added to a final concentration of 0.5%. Nucleus was collected by centrifugation (5000 rpm, 5 min). The pellets were lysed by Bioruptor-ultrasonicator (UCD400, Diagenode) in buffer B (20 mM Hepes, pH 7.9, 0.4M NaCl, 10 mM KCl, 1 mM EDTA, 1 mM EGTA, 10% Glycerol, proteinase inhibitor cocktail and 1 mM DTT) and collected the supernatant by centrifugation (12,000 rpm, 10 min). The protein concentration of nuclear extracts was quantitated using the Bradford assay (Bio-Rad; 5000001). For immunoblot, proteins were separated on 7.5 or 10% SDS-PAGE gels, transferred to polyvinylidene difluoride membranes (PVDF, Millipore; ISEQ00010), and detected by antibodies as listed in the figure legends.

[2] = tested on: FICDs (c-FMS intracellular fragments); assay: FICD generation in M-CSF-cultured human CD14+ cells, immunoblot of whole lysates; assay type: cell-based; details: BB94 10 uM for 2 days after 8 hours M-CSF (20 ng/ml)
Method: FIGS. 8A-8I show c-FMS expression in synovial macrophages. (A) The levels of M-CSF in synovial fluids from patients with rheumatoid arthritis (RA, n=13) and osteoarthritis (OA, n=8) were measured. (B) Mass spectrometry analysis for proteins from ˜50 kDa bands (red box) identified c-FMS as one of top genes. An image of coomassie blue stained genes showing immunoprecipitated cells lysates with either anti-DDK-tag antibodies or IgG control. (C-G) Human CD14+ cells were cultured with M-CSF (20ng/ml). Immunoblot of c-FMS with different antibodies against C-terminal of c-FMS; (C) C-20, (D) D-8, and (E) #3152. Immunoblot of c-FMS with different antibodies against N-terminal of c-FMS; (F) #61701, (G) H-300. (H-I) Human CD14+ cells were cultured with M-CSF (20 ng/ml) for 8 hours to induce early signals, and then BB94 (10 uM) was added for 2 days. (H) Immunoblot with anti c-FMS and α-tubulin antibodies in whole lysates (n=3). (I) Soluble c-FMS was detected by ELISA (n=3). […] All data are shown as mean±SEM. *; p<0.05 significant by two-tailed, paired t-test (A and I). M: mature form, I: immature form, H: hgh mass, L: low mass.
FIGS. 10A-10F show calpain regulates FICD generation. (A and B) Human CD14+ cells were cultured with M-CSF (20 ng/ml) for 8 hours to induce early signals and then (A) MDL 28170(0, 1, 2, 5 uM) or (B) PD150606 (0, 2, 5 uM) was added for 2 days. […]

[3] = tested on: soluble c-FMS (ectodomain shedding of c-FMS); assay: Soluble c-FMS in culture media of human CD14+ cells, ELISA; assay type: cell-based; details: BB94 10 uM for 2 days after 8 hours M-CSF (20 ng/ml)
Method: FIGS. 8A-8I show c-FMS expression in synovial macrophages. (A) The levels of M-CSF in synovial fluids from patients with rheumatoid arthritis (RA, n=13) and osteoarthritis (OA, n=8) were measured. (B) Mass spectrometry analysis for proteins from ˜50 kDa bands (red box) identified c-FMS as one of top genes. An image of coomassie blue stained genes showing immunoprecipitated cells lysates with either anti-DDK-tag antibodies or IgG control. (C-G) Human CD14+ cells were cultured with M-CSF (20ng/ml). Immunoblot of c-FMS with different antibodies against C-terminal of c-FMS; (C) C-20, (D) D-8, and (E) #3152. Immunoblot of c-FMS with different antibodies against N-terminal of c-FMS; (F) #61701, (G) H-300. (H-I) Human CD14+ cells were cultured with M-CSF (20 ng/ml) for 8 hours to induce early signals, and then BB94 (10 uM) was added for 2 days. […] (I) Soluble c-FMS was detected by ELISA (n=3). […]
c-FMS and M-CSF in synovial fluids and the supernatants of cell culture was measured using sandwich ELISA kit (R&D Systems; DY329 and DY216) according to manufacturer's instructions. C-telopeptide of type I collagen (CTX-1) and Procollagen 1 N-Terminal Propeptide (P1NP) in Serum from WT and FICDtg^M mice were measured using RatLapstm EIA kit (Immunodiagnostic Systems; AC-06F1) or P1NP-ELISA kit (Cloud-Clone corp; SEA957Mu) according to the manufacturer's instructions.

L-FICD generation = assay: Screening of 53 protease inhibitors from a protease library for L-FICD generation; assay type: cell-based
Text: To identify the protease(s) responsible for cleavage of H-FICD in an unbiased manner, we performed a screening of 53 protease inhibitors using a protease library. The best hits associated with the inhibition of L-FICD generation were MDL28170 and PD150606—two calpain inhibitors—along with MMP inhibitors and γ-secretase inhibitors. Calpain is the family of calcium-dependent cytosolic cysteine proteases expressed ubiquitously in mammals and many other organisms (Pfaff, M., Du, X. & Ginsberg, M. H. Calpain cleavage of integrin beta cytoplasmic domains. FEBS Lett 460, 17-22 (1999)), and calpain-dependent cleavages contribute to modulating various cellular functions such as apoptosis, proliferation and migration (Deshpande, R. V. et al. Calpain expression in lymphoid cells. Increased mRNA and protein levels after cell activation. J Biol Chem 270, 2497-2505 (1995). Svensson, L. et al. Calpain 2 controls turnover of LFA-1 adhesions on migrating T lymphocytes. PloS one 5, e15090, doi:10.1371/journal.pone.0015090 (2010).). […] Since calpain is activated by calcium, we examined if calcium signaling could compensate for M-CSF signaling to generate FICDs. In the absence of c-FMS signaling, calcium signaling was able to promote the cleavage of […] in the nucleus, and […] reversed the effect of calcium signaling on L-FICD processing (FIG.10C). […]

arthritic bone erosion = details: rheumatoid arthritis patients; cited from earlier work
[4] = DAPT 10uM for 2 days after 8 hours M-CSF (20 ng/ml)

In the case of `C[C@H](NC(=O)Cc1cc(F)cc(F)c1)C(=O)N[C@H](C(=O)OC(C)(C)C)c1ccccc1` [DAPT, N-[N-(3,5-difluorophenacetyl)-L-alanyl]-S-phenylglycine t-butyl ester], the “cytosol and nuclear FICDs” value [1, 4] is reported as “suppressed” and the “membrane-bound FICD” value [1, 4] is reported as “membrane-bound FICD accumulated”.

In the case of `CNC(=O)[C@H](Cc1ccccc1)NC(=O)[C@H](CC(C)C)[C@H](CSc1cccs1)C(=O)NO` [BB94], the “generation of FICDs” value [2] is reported as “suppressed the generation of FICDs” and the “ectodomain shedding of c-FMS, soluble c-FMS in the media” value [3] is reported as “inhibited the ectodomain shedding of c-FMS; also recorded: inhibited the shedding of c-FMS and diminished soluble c-FMS in the media”.

With `O=C(O)/C(S)=C/c1ccc(I)cc1` [PD150606] the “inhibition of L-FICD generation (hit in screening)” value (L-FICD generation) was “best hits”.

In the case of denosumab: an anti-RANKL antibody, the RA disease activity (arthritic bone erosion) is listed as “without affecting” and the “progression of arthritic bone erosion” value (arthritic bone erosion) is listed as “shows efficacy”.

B1: M-CSF: ligand for c-FMS (protein, UniProt P09603 33-554, looked up)
Macrophage colony-stimulating …: EEVSEYCSHMIGSGHLQSLQRLIDSQMETSCQITFEFVDQEQLKDPVCYLKKAFLLVQDIMEDTMRFRDNTPNAIAIVQLQELSLRLKSCFTKDYEEHDKACVRTFYETPLQLLEKVKNVFNETKNLLDKDWNIFSKNCNNSFAECSSQDVVTKPDCNCLYPKAIPSSDPASVSPHQPLAPSMAPVAGLTWEDSEGTEGSSLLPGEQPLHTVDPGSAKQRPPRSTCQSFEPPETPVVKDSTIGGSPQPRPSVGAFNPGMEDILDSAMGTNWVPEEASGEASEIPVPQGTELSPSRPGGGSMQTEPARPSNFLSASSPLPASAKGQQPADVTGTALPRVGPVRPTGQDWNHTPQKTDHPSALLRDPPEPGSPRISSLRPQGLSNPSTLSAQPQLSRSHSSGSVLPLGELEGRRSTRDRRSPAEPEGGPASEGAARPLPRFNSVPLTDTGHERQSEGSFSPQLQESVFHLLVPSVILVLLAVGGLLFYRWRRRSHQEPQRADSPLEQPEGSPLTQDDRQVELPV
In the case of B1, the “generation of H-FICD and L-FICD and cellular distribution of FICDs” value [1] is reported as “induced”.

B2: IL-34: ligand for c-FMS (protein, UniProt Q6ZMJ4 21-242, looked up)
Interleukin-34: NEPLEMWPLTQNEECTVTGFLRDKLQYRSRLQYMKHYFPINYKISVPYEGVFRIANVTRLQRAQVSERELRYLWVLVSLSATESVQDVLLEGHPSWKYLQEVETLLLNVQQGLTDVEVSPKVESVLSLLNAPGPNLKLVRPKALLDNCFRVMELLYCSCCKQSSVLNWQDCEVPSPQSCSPEPSLQYAATQLYPPPPWSPSSPPHSTGSVRPVRAQGEGLLP
With B2 the “generation of H-FICD and L-FICD and cellular distribution of FICDs” value [1] was “induced”.
